Source: patent US12679878B2, “CRF2 receptor agonists and their use in therapy” (SANOFI, priority 2020, dated 2026)
≈ marks a conversion by molar mass, not a printed value. Like-named read-outs stand apart in the source and are kept apart here. Starred links: 1 amine or outer side, 2 acyl side, 3 side chain; linkers in the order of their positions; H or OH if unused. Non-standard residues stand in square brackets, D forms with d. Residues, ends and D or L forms follow the SMILES beside them. Groups on a side chain read outwards from the residue. *: point of attachment. C20 diacid = O=C(O)CCCCCCCCCCCCCCCCCCC(=O)*; C18 diacid = O=C(O)CCCCCCCCCCCCCCCCC(=O)*; γGlu = O=C(O)[C@H](CCC(=O)[*:2])N[*:1]; AEEA = NCCOCCOCC(=O)O; Aib = CC(C)(N)C(=O)O

How the values were obtained:
rat CRF2R α receptor = experiment: cAMP agonism at rat CRF2R α receptor in A7R5 rat aortic smooth muscle cells (Example 8); format: cell-based; conditions: cAMP HTRF, A7R5 rat aortic smooth muscle cell line, 0% HSA
Summary of the method: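 Thawed cryopreserved A7R5 cells in HBSS/20 mM HEPES (0 or 0.1% HSA) with 2 mM IBMX, 2000 cells/well, were exposed to compound for 30 min at room temperature. cAMP was read by HTRF (665/620 nm ratio) after 1 h with lysis reagents. Activity was normalised to 1000 nM urocortin 2 as 100%, and EC50 was taken as the concentration giving 50% of maximal activation.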

endogenous human CRF2 = target: T1, endogenous human CRF2 (Homo sapiens, UniProt Q13324); experiment: cAMP agonist effect in NCI-H82 cells expressing endogenous human CRF2 (Example 10); format: cell-based; conditions: cAMP HTRF, 5 min activation
T1 construct: endogenous in cells; host or cells: NCI-H82
T1 sequence (Q13324 1-411): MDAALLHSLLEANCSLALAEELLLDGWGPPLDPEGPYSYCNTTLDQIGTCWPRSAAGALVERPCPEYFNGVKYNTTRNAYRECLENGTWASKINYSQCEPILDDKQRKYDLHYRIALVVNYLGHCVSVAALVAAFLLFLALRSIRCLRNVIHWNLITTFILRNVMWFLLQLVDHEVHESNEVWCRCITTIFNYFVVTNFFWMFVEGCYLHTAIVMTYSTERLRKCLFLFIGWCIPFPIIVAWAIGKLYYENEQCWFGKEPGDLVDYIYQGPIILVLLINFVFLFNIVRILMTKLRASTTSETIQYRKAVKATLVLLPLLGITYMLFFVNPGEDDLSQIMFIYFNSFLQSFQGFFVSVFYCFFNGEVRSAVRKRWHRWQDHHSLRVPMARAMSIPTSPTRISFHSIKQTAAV
Experimental: The agonist effect of the compounds was assessed in NCI-H82 cells expressing endogenous human CRF2.
NCI-H82 cells in suspension were plated in low-volume 384-well plates at a density of 30000 cells/well in 5 μl of test medium (RPMI+1 mM IBMX). The plates were briefly centrifuged at 800 rpm to allow the cell suspension to move to the bottom of the wells and then incubated for 2 hours at 37° C. in 5% CO2. 5 μl of test compounds at appropriate concentrations (10-11 to 3×10-7) diluted in test medium were then transferred in 384 wells plates. After 5 min of activation, the reaction was stopped by addition of HTRF revelation reagents with a multidrop dispenser. The two reagents were 5 μl/well of Anti-CAMP-cryptate diluted 20-fold in conjugate and lysis buffer and 5 μl/well of cAMP-D2 diluted 20-fold in conjugate and lysis buffer. After one-hour incubation at room temperature in the dark, the plates were read on a Clariostar apparatus.

CRF1R receptor = target: T2, CRF1R receptor (Homo sapiens, UniProt P34998); experiment: cAMP activity at anti-target CRF1R, CRF1R-overexpression CHO cell line (Example 9); format: cell-based; conditions: CRF1R-overexpression CHO cell line; for EC50: 0% HSA; for Emax: read-out: Emax (%)
T2 construct: host or cells: CHO-K1 clone 2
T2 sequence (P34998 24-415): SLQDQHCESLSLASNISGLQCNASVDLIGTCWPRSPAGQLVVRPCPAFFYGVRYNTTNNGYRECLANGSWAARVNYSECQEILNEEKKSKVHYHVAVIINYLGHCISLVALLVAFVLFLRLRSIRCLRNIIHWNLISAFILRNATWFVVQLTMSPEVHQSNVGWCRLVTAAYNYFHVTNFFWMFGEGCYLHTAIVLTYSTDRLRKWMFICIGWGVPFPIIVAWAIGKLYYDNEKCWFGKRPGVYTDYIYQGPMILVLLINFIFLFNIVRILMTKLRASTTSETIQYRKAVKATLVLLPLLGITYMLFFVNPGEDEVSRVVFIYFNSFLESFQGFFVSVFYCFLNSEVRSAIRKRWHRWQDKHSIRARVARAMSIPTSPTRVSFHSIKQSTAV
Summary of the method: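 cAMP accumulation was read by HTRF after 30 min at room temperature of compound treatment. Cells were cryopreserved CHO cells overexpressing CRF1R, plated at 2000/well in IBMX (2 mM)-containing HBSS/HEPES buffer with 0 or 0.1% HSA. Activity was normalized to 1000 nM UCN2 as 100%.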

human CRF2α receptor = target: T3, human CRF2α receptor (Homo sapiens, UniProt Q13324); experiment: cAMP agonism at human CRF2 α receptor in TeloHEAC cells (Example 7); format: cell-based; conditions: cAMP HTRF, TeloHEAC cells stably expressing human CRF2 α
T3 construct: expressed in transfected cells; host or cells: TeloHEAC
T3 sequence (Q13324 1-411): T1 sequence (Q13324 1-411)
Summary of the method: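 Cryopreserved cells are thawed, washed and resuspended in IBMX-containing (2 mM) HEPES-buffered HBSS with or without 0.1% HSA. Compound incubation runs 30 min at room temperature with 2000 cells per well, then cAMP is measured by time-resolved FRET. Potency is expressed as EC50, efficacy relative to urocortin 2 at 1000 nM.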

[1] = Solubility in buffer systems by UPLC-UV (Example 13); format: physicochemical
Summary of the method: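 The supernatant was diluted 1:10 and quantified by UPLC-UV peak area against a reference standard curve, correcting for sequence-based extinction coefficients.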

[2] = Physical stability, Thioflavin T fibrillation assay (Example 14); format: physicochemical; conditions: Buffer B: 100 mM acetate buffer, pH 4.5, 2.7 mg/ml m-cresol; 3 mg/ml; 37° C. shaking
Summary of the method: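 Compounds at 3 mg/ml final in buffer were stressed at 37° C by repeated cycles of 10 s shaking at 960 rpm and 50 s rest. ThT fluorescence was read every 20 minutes in eight replicates, with fluorescence increase and lag time indicating fibrillation tendency.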

[3] = Chemical stability, purity loss by UPLC-UV after 28 days at 40° C. vs 5° C., pH 4.5 acetate buffer (Example 12); format: physicochemical; conditions: 28 days 40° C. vs 5° C.; pH 4.5, 20 mM acetate buffer; 300 μM
Summary of the method: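 300 μM compound (purity-corrected) in 20 mM acetate buffer, pH 4.5, stored 28 days at 5 and 40° C. Purity by UPLC-UV as compound peak area over total peak area. Value is the purity difference between 5° C. and 40° C. samples, relative to the 5° C. purity, in percent.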

[4] = 0% HSA, read-out: EC50 [nM], 0% HSA
[5] = 0.1% HSA, read-out: EC50 [nM], 0.1% HSA

In the case of CC[C@H](C)[C@H](N)C(=O)N[C@H](C(=O)N[C@@H](CC(C)C)C(=O)N[C@@H](CO)C(=O)N[C@@H](CC(C)C)C(=O)N[C@@H](CC(=O)O)C(=O)N[C@H](C(=O)N1CCC[C@H]1C(=O)N[C@H](C(=O)N[C@@H](CCCCN)C(=O)N[C@@H](CC(C)C)C(=O)N[C@@H](CCCCNC(=O)COCCOCCNC(=O)COCCOCCNC(=O)CC[C@H](NC(=O)CCCCCCCCCCCCCCCCCCC(=O)O)C(=O)O)C(=O)N[C@@H](CCC(N)=O)C(=O)N[C@H](C(=O)N[C@@H](CC(C)C)C(=O)N[C@@H](CC(C)C)C(=O)N[C@@H](CCC(=O)O)C(=O)N[C@@H](CCC(N)=O)C(=O)N[C@@H](CCC(=O)O)C(=O)N[C@@H](CCCCN)C(=O)N[C@@H](CCC(N)=O)C(=O)N[C@@H](CCCCN)C(=O)NC(C)(C)C(=O)N[C@@H](CCC(N)=O)C(=O)N[C@@H](CCCNC(=N)N)C(=O)N[C@@H](CCC(=O)O)C(=O)N[C@@H](CCC(N)=O)C(=O)N[C@@H](C)C(=O)N[C@@H](CCC(=O)O)C(=O)N[C@H](C(=O)N[C@@H](CC(N)=O)C(=O)N[C@@H](CCCCN)C(=O)N[C@@H](CCC(N)=O)C(=O)N[C@H](C(=O)N[C@@H](CC(C)C)C(=O)N[C@@H](C)C(=O)N[C@@H](CCC(N)=O)C(=O)N[C@H](C(N)=O)C(C)C)[C@@H](C)CC)[C@@H](C)O)[C@@H](C)CC)[C@@H](C)CC)C(C)C)C(C)C [compound 81] (H-IVLSLDVPIKLK([AEEA-AEEA-γGlu-C20 diacid])QILLEQEKQK[Aib]QREQAETNKQILAQV-NH2), the EC50 (rat CRF2R α receptor) is reported as 0.94 nM, the EC50 (endogenous human CRF2) is reported as 110 nM and the EC50 (CRF1R receptor) is reported as over 1000 nM. It also gave an Emax (CRF1R receptor) of 23.3%, an EC50 (human CRF2α receptor; [4]) of 0.14 nM and an EC50 (human CRF2α receptor; [5]) of 18.5 nM. The solubility at 1 h ([1]; pH 4.5, Solubility in Buffer B [mg/ml]) was 20.4 mg/mL (≈ 3.97 mM) and the solubility at 1 h ([1]; pH 7.4, Solubility in Buffer C [mg/ml]) was over 9.6 mg/mL.
With CC[C@H](C)[C@H](N)C(=O)N[C@H](C(=O)N[C@@H](CC(C)C)C(=O)N[C@@H](CO)C(=O)N[C@@H](CC(C)C)C(=O)N[C@@H](CC(=O)O)C(=O)N[C@@H](C(=O)N1CCC[C@H]1C(=O)N[C@H](C(=O)N[C@@H](CCCCN)C(=O)N[C@@H](CC(C)C)C(=O)N[C@@H](CCCCNC(=O)COCCOCCNC(=O)COCCOCCNC(=O)CC[C@H](NC(=O)CCCCCCCCCCCCCCCCC(=O)O)C(=O)O)C(=O)N[C@@H](CCC(N)=O)C(=O)N[C@H](C(=O)N[C@@H](CC(C)C)C(=O)N[C@@H](CC(C)C)C(=O)N[C@@H](CCCCN)C(=O)N[C@@H](CCC(N)=O)C(=O)N[C@@H](CCC(=O)O)C(=O)N[C@@H](CCCNC(=N)N)C(=O)N[C@@H](CCC(N)=O)C(=O)N[C@@H](CCCCN)C(=O)NC(C)(C)C(=O)N[C@@H](CCC(N)=O)C(=O)N[C@@H](CCCNC(=N)N)C(=O)N[C@@H](CCC(=O)O)C(=O)N[C@@H](CCC(N)=O)C(=O)N[C@@H](C)C(=O)N[C@@H](CCC(=O)O)C(=O)N[C@@H](CCCCN)C(=O)N[C@@H](CC(N)=O)C(=O)N[C@@H](CCCCN)C(=O)N[C@@H](CCC(N)=O)C(=O)N[C@H](C(=O)N[C@@H](CC(C)C)C(=O)N[C@@H](C)C(=O)N[C@@H](CCC(N)=O)C(=O)N[C@H](C(N)=O)C(C)C)[C@@H](C)CC)[C@@H](C)CC)[C@@H](C)CC)C(C)C)C(C)C [compound 130] (H-IVLSLD[dV]PIKLK([AEEA-AEEA-γGlu-C18 diacid])QILLKQERQK[Aib]QREQAEKNKQILAQV-NH2; N-terminus assumed) the EC50 (rat CRF2R α receptor) was 0.13 nM, the “Increase in FI (fluorescence intensity)” value [2] was “No” and the “Lag time” value [2] was over 45 h. For the same compound, the EC50 (endogenous human CRF2) was 4.3 nM, the “Relative purity loss [%]” value [3] was 4.25% and the EC50 (CRF1R receptor) was over 1000 nM. It also gave an Emax (CRF1R receptor) of 20.3%, an EC50 (human CRF2α receptor; [4]) of 0.05 nM and an EC50 (human CRF2α receptor; [5]) of 2.11 nM.
